In US20220204493A1, “CRYSTALLINE FORM OF A BET-INHIBITOR AND MANUFACTURE THEREOF” (ORION CORPORATION, priority 2019, published 2022):

Key:
[1] = Long-term stability of crystalline form 1 at different storage conditions (XRPD); assay type: physicochemical
Description: (§1) Four samples of compound (I) in crystalline form 2 (with traces of form 1) prepared according to Example 10 were stored at stressed conditions. XRPD of each sample was recorded at initial time point and at further time points. Moreover, long term stability of crystalline form 1 of compound (I) at different storage conditions was studied.

[2] = Hygroscopicity of crystalline form 1; assay type: physicochemical
[3] = Relative stability study between crystalline form 1 and 2 (storage at stressed conditions, XRPD at time points); assay type: physicochemical
Description: The XRPD pattern of the crystalline form 1 of compound (I) was measured using a PANalytical X'Celerator θ-θ diffractometer with CuKα radiation (40 kV, 30 mA). The diffractometer was operated in reflection mode. The measurements were performed in the range of 3°-40° 2θ. 100-300 mg of the sample powder was placed in the sample holder and the surface was pressed. For comparison purposes, the XRPD pattern of an unmilled sample of crystalline form 1 and the XRPD pattern of a milled sample of crystalline form 1 are shown together in FIG. 3.
The XRPD pattern of the amorphic form and the crystalline form 2 of compound (I) were measured as above except that a small sample amounts (approximately 5-10 mg) were first placed in the centre of a zero-background sample holder and then gently spread to a thin layer.
as §1

COc1cc2c(cc1-c1c(C)noc1C)cc(C)c(=O)n2Cc1ccccn1 [Crystalline form 1, 6-(3,5-dimethylisoxazol-4-yl)-7-methoxy-3-methyl-1-(pyridin-2-ylmethyl)quinolin-2(1H)-one]
Physical stability [1]: physically stable
Long-term stability, changes by XRPD ([1]; 25° C./RH 60 % and 40° C./RH 75 %): no changes were observed
Long-term stability (stable up to; no changes by XRPD) ([1]; storage 25° C./RH 60 %): Stable up to 24 months
Long-term stability (stable up to; no changes by XRPD) ([1]; storage 40° C./RH 75 %): Stable up to 6 months
Hygroscopicity [2]: low hygroscopicity
Relative stability of the crystalline forms ([3]; all studied conditions): more stable than form 2

COc1cc2c(cc1-c1c(C)noc1C)cc(C)c(=O)n2Cc1ccccn1 [amorphous compound (I), 6-(3,5-Dimethylisoxazol-4-yl)-7-methoxy-3-methyl-1-(pyridin-2-ylmethyl)quinolin-2(1H)-one]
melting point: 180 °C

COc1cc2c(cc1-c1c(C)noc1C)cc(C)c(=O)n2Cc1ccccn1 [crystalline form 2, 6-(3,5-dimethylisoxazol-4-yl)-7-methoxy-3-methyl-1-(pyridin-2-ylmethyl)quinolin-2(1H)-one]
Crystalline form found by XRPD ([3]; 25 °C/RH 60 %, 2 weeks): II +
Crystalline form found by XRPD ([3]; 25 °C/RH 60 %, 4 weeks): II +
Crystalline form found by XRPD ([3]; 25 °C/RH 60 %, 12 weeks): II +
Crystalline form found by XRPD ([3]; 25 °C/RH 60 %, 24 weeks): I +
Crystalline form found by XRPD ([3]; 25 °C/RH 60 %, initial): II +
Crystalline form found by XRPD ([3]; 30 °C/RH 65 %, 2 weeks): II +
Crystalline form found by XRPD ([3]; 30 °C/RH 65 %, 4 weeks): II +
Crystalline form found by XRPD ([3]; 30 °C/RH 65 %, 12 weeks): II +
Crystalline form found by XRPD ([3]; 30 °C/RH 65 %, 24 weeks): I +
Crystalline form found by XRPD ([3]; 30 °C/RH 65 %, initial): II +
Crystalline form found by XRPD ([3]; 40 °C/RH 75 %, 2 weeks): II +
Crystalline form found by XRPD ([3]; 40 °C/RH 75 %, 4 weeks): II +
Crystalline form found by XRPD ([3]; 40 °C/RH 75 %, initial): II +
Crystalline form found by XRPD ([3]; RT/RH 5 %, initial): II +
Time for transformation of form 2 to form 1 ([3]; all studied conditions): ≤ 36 weeks
